Experimental data published in patent US10201558B2, “Compositions of selenoorganic compounds and methods of use thereof” (Alltech, Inc., priority 2014, dated 2019).

Legend:
[1] = test system: insoluble Aβ1-42; experiment: ELISA of insoluble (FA-soluble) Aβ1-42 in the brains of APP/PS1 mice; format: in vivo, mouse; conditions: diet with 1 ppm Se from Compound C, 6 to 12 months of age, vs control mice
Protocol: Male APPΔNLh/ΔNLh×PS1P246 L/246 L knock-in model mice of Alzheimer's disease (abbreviated APP/PS1) were genotyped using standard primers for human APP (Amyloid Precursor Protein) and human PS1 (PSEN1). These APP/PS1 mice starting at the age of 6 months, were fed either a control diet containing normal levels of selenium (0.3 ppm from plant and inorganic selenium salt sources) or an experimental diet containing Compound C (the control diet to which was added 1 ppm Se from Compound C) for 6 months.
At 12 months of age, the mice were euthanized and the brains quickly removed, the cerebellum isolated and the hemispheres snap-frozen in liquid nitrogen and then stored at −80° C. for further immunohistochemistry (IHC), protein and RNA analysis. All procedures conducted on these animal studies were pre-approved by the University of Kentucky IACUC committee.
Frozen hemispheres of control- and Compound C-treated APP/PS1 mice were weighed and homogenized in PBS buffer. Insoluble Aβ fractions (formic acid (FA)-soluble fractions) were extracted from the homogenates using standard serial extraction protocols as described previously (Lovell et al, Free Radic Biol Med 2009; 46:1527-33) Insoluble Aβ1-42 levels (in the FA soluble fraction) were determined using standard sandwich ELISAs (Invitrogen), according to the manufacturer's procedure. […]

[2] = test system: MAPK12; experiment: QRT-PCR of MAPK12 mRNA in control and FOXO4 KD IMR-32 cells; format: cell-based, human; conditions: 24 hours
Protocol: IMR-32 cells were cultured on 12-well plates for 24 hours and then incubated with FOXO4 siRNA lentiviruses (SC-29650V, Santa Cruz) or control siRNA lentiviruses (sc-108080, Santa Cruz) in the presence of Polybrene (5 μg/ml, Santa Cruz) for 24 hours according to the manufacturer's protocol. These lentiviral siRNA-transfected cells were amplified in normal media for 3 days and then incubated with puromycin for 9-14 days to obtain the stable Control KD (stably transfected with the control siRNAs) and FOXO4KD (stably transfected with Foxo4 siRNAs) cells. These control and Foxo4 KD cells were subjected to cell survival, mitochondrial potential and RNA analysis.
Human IMR-32 cells were seeded on gelatinized 6-well (6.5×10^5 cells/well) or 24-well (1.3×10^5 cells/well) plates. Cells were treated with control (0 ppb) or various compounds for 6 hours or 24 hours. Total RNA from these cells was isolated using Trizol (Invitrogen) according to the manufacturer's protocol, and then incubated with DNase I to remove any potential contaminated genomic DNA. Then RNA samples were subjected to real-time PCR analysis using the Applied-Bioscience's RT kit and predesigned Taqman probes (Invitrogen), as described previously (Lan et al EMBO J 2003). The mRNA levels of UCP1, UCP2, UCP3, SLC25A27 (UCP4), SLC25A14 (UCP5), PSEN1, Nicastrin, GSK3B, MAPK11-14, PPARG, APOE, RCAN1, RCAN1.1, G6PC, INSR, IGF1R and FOXO4 were measured. Three to six samples were analyzed in each treatment group. Data were normalized by Actin B (ACTB) or Glyceraldehyde Phosphate Dehydrogenase (GAPDH) mRNA levels in each sample and are presented as mean±SEM of 3-6 samples.
Normal control cells and FOXO4KD cells were incubated with two doses of Compound C for 24 hours, and subjected to QRT-PCR analysis of the MAPK11-14 genes. The relative mRNA expression of all four MAPK genes in normal control IMR-32 cells was assessed. […] Data in Compound C-treated control and FOXO4 KD cells were normalized by their levels in control and FOXO4KD cells, respectively. Mean±SEM of indicated number of samples in the bar graphs. […]

[3] = test system: PEN2; experiment: Western blot of PEN2 protein in IMR-32 cells; format: cell-based, human; conditions: 150 ppb, 24 hours
Protocol: IMR-32 cells were seeded on 6-well plates and then treated with control and various compounds for 6 hours and 24 hours, as described above. After treatments, cells were rinsed with ice-cold PBS and lysed in ice-cold RIPA buffer containing complete proteinase and phosphatase inhibitors (Thermo-Fisher Scientific, Waltham, Mass.) on ice for 30 min Cell lysates were collected using a cell scraper and transfer pipette and then centrifuged at 12000×g for 30 min at 4° C. to remove the DNA pellet and obtain the protein extract. Protein levels in the supernatant of these cell lysates were determined using the Pierce Micro-BCA protein assay kit (Thermo Scientific-Piece Biotechnology, Rockford, Ill.) according to the manufacturer's protocol […]
Positive signals on the membrane blots were detected using Amersham's enhanced chemiluminescence (ECL) Western Blotting Prime Detection reagents (GE healthcare Lifescience, Pittsburgh, Pa.). Images of these luminescence signals on the membrane blots were captured using the LI-COR Odyssey Fc Image system (Lincoln, Nebr.). […] Protein band densities in the Western blots were determined using the Li—COR Image studio software or NIH ImageJ software, and then normalized by ACTB protein level in each sample. […]

Structure (SMILES): C[Se]C[C@H]1O[C@@H](n2cnc3c(N)ncnc32)C(O)C1O (stereo in doubt) [Compound C, 5′-deoxy-5′-methylselenoadenosine]
- reduction of FA-soluble Aβ1-42 levels in the brains [1]: about 30%
- MAPK12 mRNA levels ([2]; FOXO4KD cells, 75 ppb and 150 ppb): none of the mRNA levels of the four MAPK genes in FOXO4KD cells were significantly altered
- MAPK12 mRNA levels ([2]; control KD cells, 75 ppb): significant decrease
- MAPK12 mRNA levels ([2]; control KD cells, 150 ppb): significantly decreased
- PEN2 protein levels [3]: but not PEN2 proteins, were reduced
